Data on 2 compounds can be found in US9604980B2, “Substituted pyrimidinyl and pyridinyl-pyrrolopyridinones, process for their preparation and their use as kinase inhibitors” (NERVIANO MEDICAL SCIENCES S.r.l, priority 2012, dated 2017).

SMILES strings stand for the structures. ≈ marks a conversion by molar mass, not a printed value.

The nature of data set [1]: High-Throughput Solubility Assay. Type of data set: physicochemical. The note with it: kinetic from dmso stock; pH 7, aqueous potassium phosphate buffer, nominal 200 μM, 24 h at room temperature. On the procedure: High-Throughput Solubility Assay
A nominal 200 μM suspensions/solutions of a compound of formula (I) in aqueous potassium phosphate buffer at pH=7 and aqueous citric acid buffer at pH=3 were prepared on a “Multiscreen-HTS”, 0.2 μm filter plate (Millipore, Billerica, Mass.). These solutions were stirred for 10 min and stored for 24 h at room temperature to pre-saturate the membrane filter and to reach a “pseudo-thermodynamic solubility”. Then the plate was put on a 500 μL 96 multiwell plate containing 200 μL of acetonitrile in each well and centrifuged at 2000 rpm for 5 minutes. The so obtained solutions were then analyzed simultaneously by HPLC-UV with standard solutions for quantification.

For data set [2], the system named is A2780 ovarian carcinoma cells. Description: In Vitro Cell Proliferation Assay (A2780). Format: cell-based. As to conditions: Homo sapiens, 72 hours exposure, CellTiterGlo. On the procedure: (§1) In Vitro Cell Proliferation Assay
(§2) To evaluate the antiproliferative activity of a compound of formula (I) the following human cell lines were used: A2780 ovarian and MCF-7 breast carcinoma; TT and MZ-CRC-1 medullary thyroid carcinoma, harboring a mutated RET-C634W and RET-M918T receptor respectively, LC-2/ad Non Small Cell Lung Carcinoma, expressing the CCDC6-RET fusion gene product. Exponentially growing cells were seeded and incubated at 37° C. in a humidified 5% C02 atmosphere using appropriate medium supplemented with 10% Fetal Bovine Serum. 24 hours following cell plating, scalar doses of the compounds dissolved in 0.1% DMSO were added to the medium and cells were exposed to drugs for either 72 hours (MCF-7 and A2780) or 144 hours (TT, MZ-CRC-1 and LC-2/ad), according to their different proliferation rate. At the end of treatment, cell proliferation was determined by an intracellular ATP monitoring system (CellTiterGlo—Promega), following manufacturer's instructions, and using an Envision instrument (PerkinElmer) as reader. Data obtained from compound versus vehicle treated cells were compared using Assay Explorer (Symyx Technologies Inc) software. IC50 values were calculated using sigmoidal interpolation curve fitting.
(In general: Cellular ATP, detected with luciferase, serves as a proxy for viable cell number.)

For data set [3], the system named is MCF-7 breast carcinoma cells. In words: In Vitro Cell Proliferation Assay (MCF-7). Format: cell-based. The note with it: Homo sapiens, MCF7; 72 hours exposure, CellTiterGlo. How it is done: as §1, §2
The test system of data set [4] is TT medullary thyroid carcinoma cells, harboring a mutated RET-C634W receptor. Description: In Vitro Cell Proliferation Assay (TT). Format: cell-based. As to conditions: Homo sapiens; 144 hours exposure, CellTiterGlo. On the procedure:
as §1, §2

In data set [5] the test system is MZ-CRC-1 medullary thyroid carcinoma cells, harboring a mutated RET-M918T receptor. In words: In Vitro Cell Proliferation Assay (MZ-CRC-1). Type of data set: cell-based. The note with it: Homo sapiens, 144 hours exposure, CellTiterGlo. How it is done: as §1, §2
The subject of data set [6] is LC-2/ad Non Small Cell Lung Carcinoma cells, expressing the CCDC6-RET fusion gene product. Description: In Vitro Cell Proliferation Assay (LC-2/ad). Type of data set: cell-based. As to conditions: Homo sapiens, 144 hours exposure, CellTiterGlo. How it is done:
as §1, §2

As usually defined, the solubility is the concentration that dissolves in the medium under given conditions. A high value points to much dissolved substance. For orientation: IC50 means the point on the concentration scale where inhibition reaches its midpoint. Read a high IC50 as weaker potency.

On to `CCN1CCN(Cc2ccc(NC(=O)Cc3cccc(C#Cc4cnc(N)nc4-c4cc5c(n4C)CCNC5=O)c3)cc2C(F)(F)F)CC1` [Cmpd 77, 2-{3-[2-Amino-4-(1-methyl-4-oxo-4,5,6,7-tetrahydro-1H-pyrrolo[3,2-c]pyridin-2-yl)-pyrimidin-5-ylethynyl]-phenyl}-N-[4-(4-ethyl-piperazin-1-ylmethyl)-3-trifluoromethyl-phenyl]-acetamide], for which the solubility at 24 h in data set [1] was 23 µM (≈ 15.4 µg/mL). Further, the IC50 in data set [2] amounted to 2820 nM; in data set [3], 6650 nM; in data set [4] it was 0.002 µM; in data set [5] it was 0.023 µM; in data set [6], 0.003 µM.
Turning to `CCN1CCN(Cc2ccc(NC(=O)Cc3cccc(C#Cc4cnc(NC)nc4-c4cc5c(n4C)CCNC5=O)c3)cc2C(F)(F)F)CC1` [Cmpd 78, N-[4-(4-Ethyl-piperazin-1-ylmethyl)-3-trifluoromethyl-phenyl]-2-{3-[2-methylamino-4-(1-methyl-4-oxo-4,5,6,7-tetrahydro-1H-pyrrolo[3,2-c]pyridin-2-yl)-pyrimidin-5-ylethynyl]-phenyl}-acetamide], in data set [1], the solubility at 24 h came out at 1.4 µM (≈ 0.959 µg/mL). In addition, the IC50 in data set [2] was 2220 nM; in data set [3] it was 2310 nM; in data set [4], 0.007 µM; in data set [5], 0.026 µM; in data set [6], 0.014 µM.
